Measured values reported in patent publication US8637560B2, “Imidazolidinone compounds, methods to inhibit deubiquitination and methods of treatment” (The United States of America as Represented by the …, priority 2007, dated 2014).
Where two headings read alike, the source gives them in different places. Residues, ends and D or L forms follow the SMILES beside them. *: point of attachment. Cbz = O=C(OCc1ccccc1)*

Key:
JEKO-1 cells = test: Combination treatment of EerI and BH3 mimetic, MTT viability; conditions: 48 h
Description: Cell viability was measured by the MTT assay. […] JEKO-1 cells were treated with the indicated compounds for 48 h. Cell viability was measured by the MTT assay.

primary CLL cells = test: MTT viability assay, primary CLL samples; type: cell-based; conditions: 3 days
Description: Experiments for FIGS. 1-5 were conducted in vitro by keeping cell lines in RPMI medium with 10% FCS and primary cells in AIM V medium. Cells were seeded into 96 well plates at a concentration of 4×10e5/ml for cell lines at a concentration of 5×10e6/mL for primary cells. Cells were incubated for 2 days (cell lines) or 3 days (primary samples) in the indicated concentration of drug (bortezomib from commercial clinical grade stock; EER1 provided by Dr. Ye and Dr. Trenkle). Viability was determined using the standard MTT assay. Synergy calculations were carried out with Calcusyn software.

[1] = tested on: recombinant retrovirus that expresses a GFP reporter gene; test: Production of recombinant GFP retrovirus in GP293 packaging cells; type: cell-based; conditions: unidentified retrovirus, medium collected 36 hours later, GFP fluorescence in target cells, read-out: IC50 for inhibition of production of recombinant retrovirus
Description: […]. Infection was allowed to proceed for 10 hours before the medium was replaced with fresh medium. The expression of the GFP protein as a result of viral infection was measured by a fluorescence meter. […]. The IC50 was ˜3 uM.

atx3 = test: In vitro atx3-dependent deubiquitination of immunoprecipitated atx3-substrate complexes; type: biochemical; conditions: for effect on atx3-mediated deubiquitination when added to purified atx3-substrate complex: added in vitro; for deubiquitination of atx3-bound ubiquitin conjugates from treated cells: complex isolated from treated cells, compared with control cells
[2] = tested on: MHC class I heavy chain (HC); test: Degradation of MHC class I heavy chain in US11-expressing astrocytoma (A9) cells, fractionation and immunoblot; type: cell-based
Description: . […] The cells were permeabilized in a buffer containing 0.028% of digitonin, and fractionated into a pellet fraction containing the ER membranes and a supernatant fraction containing the cytosol (Shamu et al., 1999; Ye et al., 2001, 2003). HC was immunoprecipitated from detergent extracts of these fractions under denaturing condition, and analyzed by immunoblotting (Shamu et al., 1999; Wang et al., 2006). […] As a positive control, A9 cells were treated with MG132, a proteasome inhibitor. […] However, a significant fraction of HC accumulated in MG132-treated cells was non-ubiquitinated species with its N-linked glycan removed by a cytosolic N-glycanase (Hirsch et al., 2003; Blom et al., 2004). The accumulation of non-modified substrates upon inhibition of the proteasome function has been observed for many proteasomal substrates, and was generally attributed to deubiquitination by cytosolic DUBs. […]

[3] = tested on: polyubiquitinated proteins; test: Accumulation of polyubiquitinated proteins in treated cells, immunoblot; type: cell-based; conditions: for accumulation of polyubiquitinated proteins in cells: EerI and structurally related analogues, FIG. 12C, D
GFPμ = test: Degradation of GFPμ in astrocytoma cells, immunoblot; type: cell-based; conditions: 12 h
Description: […]. Astrocytoma cells expressing HA-tagged GFPμ were treated with the indicated chemicals (12 h). The steady state levels of GFPμ in whole cell extracts (WCE) were analyzed by immunoblotting (IB). Where as indicated, GFPμ was first immunoprecipitated before immunoblotting analyses.
Since a large portion of p97 is localized in the cytosol, it may be involved in degradation of misfolded cytosolic proteins. In fact, GFPμ, a model proteasomal substrate (Bence et al., 2005) appeared to be degraded in a p97 dependent manner, because the expression of a dominant negative p97 mutant stabilized this substrate in part as a p97-associated form (data not shown).

NOXA = NOXA protein level by immunoblotting; type: cell-based; conditions: variety of cancer and transformed cell lines
Description: . […] Protein extracts were analyzed by immunoblotting. […] (D) NOXA knock-down cells.
; FIG. 16; data not shown).

MHC class I heavy chain = conditions: permeabilized US11 cells
Xbp1 mRNA = Xbp1 mRNA splicing by RT-PCR; conditions: JEKO-1 cells
eIF2α = eIF2α phosphorylation by immunoblotting; conditions: JEKO-1 cells
ATF6 = ATF6 activation in HeLa cells, immunoblotting; conditions: HeLa cells expressing Flag-tagged ATF6
Description: (E) HeLa cells expressing Flag-tagged ATF6 were treated with the indicated chemicals. Cell extracts were analyzed by immunoblotting. (F) HeLa cells expressing Flag-tagged ATF6 were treated with the indicated chemicals and stained with Flag antibodies. N, nucleus. Arrows indicate the position of the Golgi.

TCRα-GFP = test: Degradation of overexpressed TCRα-GFP, immunoblot
JEKO cells = test: mRNA expression of BH3-domain proteins by quantitative RT-PCR
Description: The precipitated RNA was further purified by a RNA clean-up kit (Qiagen). The purified RNA was quantified, and used as template to synthesize cDNA. The expression of various genes was then determined by quantitative RT-PCR.

[4] = tested on: p97-associated deubiquitination (PAD); test: In vitro deubiquitination of p97-bound substrates immunoprecipitated from treated cells; conditions: for effect on PAD: p97 complexes from treated cells
Description: To study PAD, a previously established in vitro deubiquitination assay was used. p97 and its associated substrates immunoprecipitated from cell extracts were incubated in vitro.

CC(C)C(C(=O)O)N1C(=O)/C(=C\c2ccc(Br)cc2)SC1=S (stereo not drawn) [BH3i-1, reference compound]
toxicity as a single agent in MCL cells (JEKO-1 cells): did not induce significant toxicity

CC1(C)C(N(O)C(=O)Nc2ccc(Cl)cc2)N(c2ccc(Cl)cc2)C(=O)N1CC(=O)N/N=C/C=Cc1ccc([N+](=O)[O-])o1 (stereo not drawn) [EERI, 1-(4-chloro-phenyl)-3-[3-(4-chloro-phenyl)-5,5-dimethyl-1-[3-(5-nitro-furan-2-yl)-allyldiene-hydrazinocarbonylmethyl]-2-oxo-imidazolidin-4-yl]-1-hydroxyl-urea]
activity against primary CLL cells (primary CLL cells): highly active
IC50 [1]: ~3000 nM
activity of atx3 purified from treated cells on exogenously added ubiquitin oligomers (Ub2-7) (atx3; DMSO- vs EerI-treated cells): equally active
effect on atx3-mediated deubiquitination when added to purified atx3-substrate complex (atx3): had no effect
deubiquitination of atx3-bound ubiquitin conjugates from treated cells (atx3): more resistant to deubiquitination
polyubiquitinated HC in the cytosol [2]: polyubiquitinated HC was accumulated in the cytosol
time after treatment at which cells start to accumulate polyubiquitinated proteins [3]: ~1.5 h
amount of polyubiquitinated proteins accumulated for a given time period ([3]; 293T cells, FIG. 6D): more polyubiquitinated proteins than MG132-treated cells
accumulation of polyubiquitinated proteins in cells [3]: accumulation of polyubiquitinated proteins
form of GFPμ in treated cells (GFPμ): present almost exclusively as polyubiquitinated form
level of NOXA protein (NOXA): rapidly increased
retrotranslocation and degradation of MHC class I heavy chain on addition to permeabilized cells (MHC class I heavy chain): did not inhibit
splicing of Xbp1 mRNA (Xbp1 mRNA): induced the splicing of Xbp1
eIF2α phosphorylation (eIF2α): induced eIF2α phosphorylation
ATF6 cleavage (ATF6): no increase in ATF6 cleavage
polyubiquitinated TCRα-GFP (TCRα-GFP): accumulated polyubiquitinated TCRα-GFP
effect of presence of EerI on cytotoxicity of the BH3 mimetic (JEKO-1 cells): strongly enhanced its cytotoxicity
mRNA expression of BH3-domain proteins Noxa, Bim and Puma (JEKO cells): significantly induced
effect on PAD [4]: blocks deubiquitination reactions associated with p97
reduction of p97-bound polyubiquitinated substrates after in vitro incubation ([4]; substrates isolated from treated cells, non-treated cells ~60%): ~10%

ubiquitin aldehyde [reference compound]
effect on atx3-mediated deubiquitination when added to purified atx3-substrate complex (atx3): inhibited

O[C@H](CS)[C@H](O)CS (racemic) [DTT, dithiothreitol, reference compound]
ATF6 cleavage (ATF6): rapidly induced the cleavage of ATF6

CC(C)C[C@@H](C=O)NC(=O)[C@H](CC(C)C)NC(=O)[C@H](CC(C)C)NC(=O)OCc1ccccc1 [MG132, reference compound] (Cbz-Leu-Leu-Leu-aldehyde)
deubiquitination of atx3-bound ubiquitin conjugates from treated cells (atx3): rapidly deconjugated
polyubiquitinated HC in the cytosol ([2]; A9 cells, 10 μM): accumulation of polyubiquitinated HC in the cytosol
form of GFPμ in treated cells (GFPμ): mostly accumulated in the deubiquitinated form
polyubiquitinated TCRα-GFP (TCRα-GFP): polyubiquitinated TCRα-GFP was accumulated
effect on PAD [4]: did not apparently block PAD

CC1(C)C(N(O)C(=O)Nc2cccc3ccccc23)N(c2cccc3ccccc23)C(=O)N1CC(=O)N/N=C/C=Cc1ccc([N+](=O)[O-])o1 (stereo not drawn) [Eeyarestatin II, 1-[5,5-dimethyl-3-naphthalen-1-yl-1 [3-(5-nitro-furan-2-yl)-allyldiene-hydrazinocarbonylmethyl]-2-oxo-imidazolidin-4-yl]-3-naphthalen-1-yl-1-hydroxyl-urea]
accumulation of polyubiquitinated proteins in cells [3]: accumulation of polyubiquitinated proteins

CC(C)C[C@H](NC(=O)[C@H](Cc1ccccc1)NC(=O)c1cnccn1)B(O)O [bortezomib, reference compound]
mRNA expression of BH3-domain proteins Noxa, Bim and Puma (JEKO cells): only induces the expression of Noxa
